Series [1] can be described thus: water solubility of the amine boranes. It counts as physicochemical. As to the method:
Two Hundred milliliters of distilled dimethylsulfide (DMS) and 122.5 g (523.5 mmol) of CH3 O(C2 H4 O)3 C2 H4 N(CH3)2 were added to a one liter three necked flask equipped with a magnetic stirring bar, a thermometer and a 250 ml pressure equalizing dropping funnel. 41.4 grams (523.5 mmol) of dimethylsulfide borane (DMSB) was added to the funnel. The DMSB was added dropwise over the next hour while maintaining the reaction vessel temperature between 7°-15° C with ice water cooling. After the reaction was complete, the DMS solvent was removed under vacuum.
(1) 62.0 g (530 mmol) of CH3 CH2 OC2 H4 N(CH3)2 and 41.7 g (530 mmol) of DMSB were reacted in the same manner as example 1.
33.7 g (229.2 mmol) of CH3 OC2 H4 OC2 H4 N(CH3)2 and 18.1 g (230 mmol) of DMSB were reacted in the same manner as example (1). The resulting liquid amine borane has an approximate water solubility of 200 g/l of solution.
113.2 g (1099 mmol) of CH3 OC2 H4 N(CH3)2 and 87.3 g (1099 mmol) DMSB were reacted in the same manner as example 1. […] Inert solvents, such as hydrocarbon or ether solvents, can be used partially or wholly in place of the DMS. Temperature, pressure and reaction proportions are not critical, although it is generally most convenient to use stoichimetric proportions at atmospheric pressure and room temperature or below.

Series [2] is described as follows: electroless gold plating: reduction of gold salt solution on palladium chloride activated nickel plate. As to conditions: mixed with KAuCl4 solution, pH 12.5. How it is done: The amine boranes of this invention are useful as reducing agents in aqueous solutions. For example, solutions of gold salts are reduced by the water soluble amine boranes to plate gold on a catalytically active surface contacted with the solution, as is more fully described in the above referenced co pending application. To illustrate, the pH of one hundred ml of a 3.0 g/l solution of KAuCl4 was raised to 12.5 by the addition of NaOH. In a separate beaker, the pH of 100 ml of a 2.00g/l solution of CH3 OCH2 CH2 N(CH3)2 :BH3 was also raised to 12.5 by the addtion of NaOH. […] A palladium chloride activated substrate of nickel plate was immersed in the stirred bath for one hour at room temperature.

Values after ≈ are worked out from the molar mass of the structure shown.

In the case of `[BH3-][N+](C)(C)CCOCCOCCOCCOC` [Example 1], the “water solubility (in words)” value in series [1] (in water) is on record as “very soluble in water”.
With `[BH3-][N+](C)(C)CCOCC` [Example 2], the solubility in water in series [1] (in water at 25° C) was 17 mg/mL (≈ 130 mM).
Regarding `[BH3-][N+](C)(C)CCOCCOC` [Example 3], in series [1] (in water), the approximate water solubility is reported as ~200 g/l of solution.
With `[BH3-][N+](C)(C)CCOC` [Example 4], the “appearance and stability of mixed plating solution” value in series [2] is “clear and stable”. In series [1] (in water), the “limiting solubility in water” value is 38 g/l of solution.

Source of the values: patent publication US4080381A, “Water soluble tertiary amine boranes” (Mine Safety Appliances Company, priority 1976, dated 1978).
